Test results from US6737383B1, “Herbicidal oxadiazolidines” (priority 1999, dated 2004).

Experiments:
wild oat = test: Test E wild oat; format: in vivo, Avena fatua; settings: Preemergence
morningglory = test: Test B pre/postemergence morningglory; format: in vivo, Ipomoea hederacea
Summary of the method: (§1)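 Response is a visual 0-to-10 score relative to untreated plants, where 0 means no effect and 10 means complete control, taken twelve to sixteen days after application. Treatments went onto soil at planting and onto foliage of 1- to 4-leaf plants, using a surfactant-containing non-phytotoxic solvent.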

giant foxtail = test: Test B pre/postemergence giant foxtail; format: in vivo, Setaria faberii
Summary of the method: as §1

winter wheat [1] = test: Test E winter wheat; format: in vivo, Triticum aestivum; settings: Postemergence
Summary of the method: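 Postemergence: spray at 1–4 leaf stage, soil 60:40 sandy loam:potting mix; solvent + surfactant formulation; greenhouse 21–28 d; visual injury vs untreated controls.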

pigweed = test: Test B pre/postemergence pigweed; format: in vivo, Amaranthus retroflexus
Summary of the method: as §1

green foxtail = test: Test E green foxtail; format: in vivo, Setaria viridis; settings: Preemergence
Italian ryegrass = test: Test E Italian ryegrass; format: in vivo, Lolium multiflorum; settings: Preemergence
blackgrass = test: Test E blackgrass; format: in vivo, Alopecurus myosuroides; settings: Preemergence
winter barley = test: Test E winter barley; format: in vivo, Hordeum vulgare; settings: Preemergence
winter wheat [2] = test: Test E winter wheat; format: in vivo, Triticum aestivum; settings: Preemergence
[3] = Rate 500 g/ha, 0 to 100 scale where 0 is no effect and 100 is complete control
[4] = Rate 1000 g/ha, 0 to 100 scale where 0 is no effect and 100 is complete control
[5] = Postemergence, Rate 125 g/ha, scale of 0 to 10 where 0 is no effect and 10 is complete control
[6] = Preemergence, Rate 62 g/ha, scale of 0 to 10 where 0 is no effect and 10 is complete control
[7] = Preemergence, Rate 125 g/ha, 0 is no effect, 10 is complete control
[8] = Preemergence, Rate 250 g/ha, scale 0 to 10, 0 is no effect, 10 is complete control
[9] = Preemergence, Rate 500 g/ha, scale 0 to 10 (0 no effect, 10 complete control)
[10] = Rate 62 g/ha, Postemergence, scale of 0 to 10 where 0 is no effect and 10 is complete control
[11] = Rate 250 g/ha, Postemergence, scale 0 to 10, 0 is no effect, 10 is complete control
[12] = Rate 500 g/ha, Postemergence, scale 0 to 10
[13] = Rate 500 g/ha, 0 to 100 scale, 0 no effect, 100 complete control
[14] = Rate 125 g/ha, 0 to 100 scale (0 no effect, 100 complete control)
[15] = Postemergence, Rate 62 g/ha, scale 0 to 10, 0 is no effect, 10 is complete control
[16] = Postemergence, Rate 250 g/ha, scale 0 to 10, 0 no effect, 10 complete control
[17] = Preemergence, Rate 31 g/ha, visual rating, scale 0 to 10 (0 no effect, 10 complete control)
[18] = Preemergence, Rate 62 g/ha, scale 0 to 10 (0 no effect, 10 complete control)
[19] = Preemergence, Rate 125 g/ha, scale 0 to 10 (0 no effect, 10 complete control)
[20] = Preemergence, Rate 250 g/ha, scale of 0 to 10 where 0 is no effect and 10 is complete control
[21] = Rate 31 g/ha, Postemergence, scale 0 to 10

SMILES: CC1CCCCC1n1c(=O)on(C(=O)N(c2ccc(F)cc2)C(C)C)c1=O (centres unmarked) [Compound 161]
- Wild oat plant response rating (0 to 100 scale) (wild oat; Rate 250 g/ha): 50
- Plant response rating, Wild oat (wild oat; [3]): 50
- Plant response rating, Wild oat (wild oat; [4]): 60
- Morningglory plant response rating (morningglory; [5]): 5
- Morningglory plant response rating (morningglory; [6]): 0
- Morningglory plant response rating (0 to 10 scale) (morningglory; [7]): 0
- Morningglory plant response rating (morningglory; [8]): 0
- Morningglory plant response rating (morningglory; [9]): 0
- Morningglory plant response rating (morningglory; [10]): 4
- Plant response rating, Morningglory (morningglory; [11]): 7
- Morningglory plant response rating (morningglory; [12]): 10
- Giant foxtail plant response rating (giant foxtail; [5]): 0
- Giant foxtail plant response rating (giant foxtail; [6]): 4
- Giant foxtail plant response rating (0 to 10 scale) (giant foxtail; [7]): 9
- Giant foxtail plant response rating (giant foxtail; [8]): 9
- Giant foxtail plant response rating (giant foxtail; [9]): 10
- Giant foxtail plant response rating (giant foxtail; [10]): 0
- Plant response rating, Giant foxtail (giant foxtail; [11]): 3
- Giant foxtail plant response rating (giant foxtail; [12]): 7
- Plant response rating, Wheat (winter) (winter wheat [1]; Rate 1000 g/ha, 0 to 100 scale, 0 is no effect and 100 is complete control): 50
- Plant response rating, Wheat (winter) (winter wheat [1]; [13]): 35
- Wheat (winter) plant response rating (winter wheat [1]; Rate 250 g/ha, 0 to 100 scale where 0 is no effect and 100 is complete control): 30
- Redroot pigweed plant response rating (pigweed; [5]): 0
- Redroot pigweed plant response rating (pigweed; [6]): 0
- Redroot pigweed plant response rating (0 to 10 scale) (pigweed; [7]): 0
- Redroot pigweed plant response rating (pigweed; [8]): 4
- Redroot pigweed plant response rating (pigweed; [9]): 10
- Redroot pigweed plant response rating (pigweed; [10]): 0
- Plant response rating, Redroot pigweed (pigweed; [11]): 4
- Redroot pigweed plant response rating (pigweed; [12]): 5
- Green foxtail plant response rating (0 to 100 scale) (green foxtail; Rate 250 g/ha): 60
- Plant response rating, Green foxtail (green foxtail; [3]): 70
- Plant response rating, Green foxtail (green foxtail; [4]): 90
- I. Ryegrass plant response rating (0 to 100 scale) (Italian ryegrass; Rate 250 g/ha): 60
- Plant response rating, I. Ryegrass (Italian ryegrass; [3]): 65
- Plant response rating, I. Ryegrass (Italian ryegrass; [4]): 85
- Blackgrass plant response rating (0 to 100 scale) (blackgrass; Rate 250 g/ha): 30
- Plant response rating, Blackgrass (blackgrass; [3]): 50
- Plant response rating, Blackgrass (blackgrass; [4]): 55
- Barley (winter) plant response rating (0 to 100 scale) (winter barley; Rate 250 g/ha): 30
- Plant response rating, Barley (winter) (winter barley; [3]): 40
- Plant response rating, Barley (winter) (winter barley; [4]): 40
- Wheat (winter) plant response rating (0 to 100 scale) (winter wheat [2]; Rate 250 g/ha): 10
- Plant response rating, Wheat (winter) (winter wheat [2]; [3]): 20
- Plant response rating, Wheat (winter) (winter wheat [2]; [4]): 45

SMILES: CC(C)N(C(=O)n1oc(=O)n(-c2cnn(C)c2)c1=O)c1ccc(F)cc1 [Compound 98]
- Plant response rating, Wild oat (wild oat; [14]): 50
- Plant response rating, Wild oat (wild oat; [3]): 50
- Morningglory plant response rating (morningglory; [15]): 0
- Morningglory plant response rating (morningglory; [5]): 0
- Morningglory plant response rating (morningglory; [16]): 2
- Morningglory plant response rating (morningglory; [17]): 0
- Morningglory plant response rating (morningglory; [18]): 0
- Plant response rating, Morningglory (morningglory; [19]): 0
- Plant response rating, Morningglory (morningglory; [20]): 0
- Morningglory plant response rating (morningglory; [21]): 0
- Giant foxtail plant response rating (giant foxtail; [15]): 0
- Giant foxtail plant response rating (giant foxtail; [5]): 0
- Giant foxtail plant response rating (giant foxtail; [16]): 2
- Giant foxtail plant response rating (giant foxtail; [17]): 4
- Giant foxtail plant response rating (giant foxtail; [18]): 5
- Plant response rating, Giant foxtail (giant foxtail; [19]): 8
- Plant response rating, Giant foxtail (giant foxtail; [20]): 10
- Giant foxtail plant response rating (giant foxtail; [21]): 0
- Plant response rating, Wheat (winter) (winter wheat [1]; Rate 125 g/ha, 0 to 100 scale): 30
- Plant response rating, Wheat (winter) (winter wheat [1]; Rate 250 g/ha, 0 to 100 scale (0 no effect, 100 complete control)): 50
- Plant response rating, Wheat (winter) (winter wheat [1]; [13]): 55
- Redroot pigweed plant response rating (pigweed; [15]): 0
- Redroot pigweed plant response rating (pigweed; [5]): 0
- Redroot pigweed plant response rating (pigweed; [17]): 0
- Redroot pigweed plant response rating (pigweed; [18]): 4
- Plant response rating, Redroot pigweed (pigweed; [19]): 4
- Plant response rating, Redroot pigweed (pigweed; [20]): 5
- Redroot pigweed plant response rating (pigweed; [21]): 0
- Plant response rating, Redroot pigweed (pigweed; [11]): 0
- Plant response rating, Green foxtail (green foxtail; [14]): 60
- Plant response rating, Green foxtail (green foxtail; Rate 250 g/ha, 0 to 100 scale): 60
- Plant response rating, Green foxtail (green foxtail; [3]): 65
- Plant response rating, I. Ryegrass (Italian ryegrass; [14]): 50
- Plant response rating, I. Ryegrass (Italian ryegrass; Rate 250 g/ha, 0 to 100 scale): 50
- Plant response rating, I. Ryegrass (Italian ryegrass; [3]): 60
- Plant response rating, Blackgrass (blackgrass; [14]): 30
- Plant response rating, Blackgrass (blackgrass; Rate 250 g/ha, 0 to 100 scale): 20
- Plant response rating, Blackgrass (blackgrass; [3]): 55
- Plant response rating, Barley (winter) (winter barley; [14]): 20
- Plant response rating, Barley (winter) (winter barley; Rate 250 g/ha, 0 to 100 scale): 10
- Plant response rating, Barley (winter) (winter barley; [3]): 30
- Plant response rating, Wheat (winter) (winter wheat [2]; [14]): 30
- Plant response rating, Wheat (winter) (winter wheat [2]; Rate 250 g/ha, 0 to 100 scale): 40
- Plant response rating, Wheat (winter) (winter wheat [2]; [3]): 40
